Assay results published in patent US6660755B2, “Substituted diaryl or diheteroaryl methans, ethers and amines having retinoid agonist, antagonist or inverse agonist type biological activity” (Allergan, Inc., priority 1997, dated 2003).

Experiments:
[1] = target: T1, RARα (Homo sapiens, UniProt P10276); test: Ligand binding assay, RARα
T1 sequence (P10276 1-462): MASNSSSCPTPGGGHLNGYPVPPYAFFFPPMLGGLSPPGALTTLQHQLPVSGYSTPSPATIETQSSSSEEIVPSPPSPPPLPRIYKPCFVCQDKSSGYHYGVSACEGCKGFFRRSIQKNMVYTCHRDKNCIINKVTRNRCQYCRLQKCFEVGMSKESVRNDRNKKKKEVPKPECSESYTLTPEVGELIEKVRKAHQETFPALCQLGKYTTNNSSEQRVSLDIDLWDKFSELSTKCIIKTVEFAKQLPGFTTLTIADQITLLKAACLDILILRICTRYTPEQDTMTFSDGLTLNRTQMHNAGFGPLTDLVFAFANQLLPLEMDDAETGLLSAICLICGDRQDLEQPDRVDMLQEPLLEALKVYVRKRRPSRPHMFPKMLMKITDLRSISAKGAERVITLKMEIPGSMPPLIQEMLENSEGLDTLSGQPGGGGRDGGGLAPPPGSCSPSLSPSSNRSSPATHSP
From the text: (§1) A holoreceptor transactivation assay and a ligand binding assay which measure the antagonist/agonist like activity of the compounds of the invention, or their ability to bind to the several retinoid receptor subtypes, respectively, are described in published PCT Application No. WO WO93/11755 (particularly on pages 30-33 and 37-41) published on Jun. 24, 1993, the specification of which is also incorporated herein by reference. A detailed experimental procedure for holoreceptor transactivations has been described by Heyman et al. Cell 1992, 68, 397-406; Allegretto et al. J. Biol. Chem. 1993 268, 26625-26633, and Mangelsdorf et al. The Retinoids: Biology, Chemistry and Medicine, pp 319-349, Raven Press Ltd., New York, which are expressly incorporated herein by reference. The results obtained in this assay are expressed in EC50 numbers, as they are also in the chimeric receptor transactivation assay. The results of ligand binding assay are expressed in Kd numbers. (See Cheng et al. Biochemical Pharmacology 22, 3099-3108, expressly incorporated herein by reference.) Still another transactivation assay, the “PGR assay” is described in the publication Klein et al. J. Biol. Chem. 1996, 271, 22692-22696, which is expressly incorporated herein by reference, and a detailed description is also provided below. The results of the PGR assay are also expressed in EC50 numbers (nanomolar concentration).

[2] = target: T2, RARγ (Homo sapiens, UniProt P13631); test: Ligand binding assay, RARγ
T2 sequence (P13631 1-454): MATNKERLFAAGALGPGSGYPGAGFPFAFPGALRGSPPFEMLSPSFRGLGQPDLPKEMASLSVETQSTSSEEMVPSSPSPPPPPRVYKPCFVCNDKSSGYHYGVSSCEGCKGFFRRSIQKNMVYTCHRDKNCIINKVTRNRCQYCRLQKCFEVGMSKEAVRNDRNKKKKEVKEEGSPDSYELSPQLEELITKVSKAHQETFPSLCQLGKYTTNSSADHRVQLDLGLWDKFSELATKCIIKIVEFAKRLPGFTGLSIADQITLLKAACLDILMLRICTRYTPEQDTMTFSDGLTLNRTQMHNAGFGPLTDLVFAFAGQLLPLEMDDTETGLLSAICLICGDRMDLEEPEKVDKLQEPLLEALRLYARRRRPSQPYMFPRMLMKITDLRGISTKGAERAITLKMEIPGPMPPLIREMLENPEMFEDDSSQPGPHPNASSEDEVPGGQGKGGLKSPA
From the text: as §1

[3] = target: T3, RARβ (Homo sapiens, UniProt P10826); test: Ligand binding assay, RARβ; conditions: read-out: Kd RABβ
T3 sequence (P10826 1-455): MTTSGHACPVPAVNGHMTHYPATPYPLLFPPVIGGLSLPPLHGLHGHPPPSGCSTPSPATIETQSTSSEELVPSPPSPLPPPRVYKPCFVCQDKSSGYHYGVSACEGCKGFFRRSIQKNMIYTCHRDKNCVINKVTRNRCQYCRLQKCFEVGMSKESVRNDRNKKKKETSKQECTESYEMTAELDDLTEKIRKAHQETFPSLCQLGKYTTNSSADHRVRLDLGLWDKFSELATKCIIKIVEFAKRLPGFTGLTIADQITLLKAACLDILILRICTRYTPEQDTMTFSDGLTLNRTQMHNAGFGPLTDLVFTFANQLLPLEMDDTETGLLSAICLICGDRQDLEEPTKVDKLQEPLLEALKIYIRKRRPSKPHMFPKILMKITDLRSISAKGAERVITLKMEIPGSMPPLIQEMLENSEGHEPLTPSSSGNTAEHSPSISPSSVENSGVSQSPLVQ
From the text: as §1

Row | Compound | Kd [1] [nM] | Kd [2] [nM] | Kd [3] [nM]
1 | CC(C)(C)c1ccc(C#Cc2ccc(C(=O)O)c(F)c2)cc1Oc1ccc(N=[N+]=[N-])cc1 [Compound 17, 4-[[4′-tert-Butyl-3′-(4″-azido)phenoxy]phenylethynyl]-2-fluoro-benzoic Acid] | 20 | 18 | 24
2 | Cc1ccc(Oc2cc(C#Cc3ccc(C(=O)O)cc3)ccc2C(C)(C)C)cc1 [Compound 30, 4-[[4′-tert-Butyl-3′-(4″-methyl)phenoxy]phenylethynyl]benzoic Acid] | 48 | 41 | 13
3 | Cc1ccc(Oc2cc(/C=C/c3ccc(C(=O)O)cc3)ccc2C(C)(C)C)cc1 [Compound 15, 4-[[4′-tert-Butyl-3′-(4″-methyl)phenoxy]phenylvinyl]benzoic Acid] | 12.5 | 33 | 0.8
4 | CCc1ccc(Oc2cc(C#Cc3ccc(C(=O)O)c(F)c3)ccc2C(C)(C)C)cc1 [Compound 25, 4-[[4′-tert-Butyl-3′-(4″-ethyl)phenoxy]phenylethynyl]-2-fluoro-benzoic Acid] | 12 | 22.5 | 9
5 | CC(C)(C)c1ccc(C#Cc2ccc(C(=O)O)cc2)cc1Oc1ccc(C(F)(F)F)cc1 [Compound 3, 4-[[4′-tert-Butyl-3′-(4″-trifluoromethyl)phenoxy]phenylethynyl]benzoic Acid] | 90 | 102 | 44
6 | CC(C)(C)c1ccc(C#Cc2ccc(C(=O)O)c(F)c2)cc1Oc1ccc(I)cc1 [Compound 20, 4-[[4′-tert-Butyl-3′-(4″-iodo)phenoxy]phenylethynyl]-2-fluoro-benzoic Acid] | 22.5 | 84 | 16
7 | CC(C)(C)c1ccc(/C=C/c2ccc(C(=O)O)cc2)cc1Oc1ccc(C(F)(F)F)cc1 [Compound 22, 4-[[4′-tert-Butyl-3′-(4″-trifluoromethyl)phenoxy]vinyl]benzoic Acid] | 17 | 162 | 36
8 | CC(C)(C)c1ccc(C#Cc2ccc(C(=O)O)c(F)c2)cc1Oc1ccc(C(F)(F)F)cc1 [Compound 4, 4-[[4′-tert-Butyl-3′-(4″-trifluoromethyl)phenoxy]phenylethynyl]-2-fluoro-benzoic Acid] | 17 | 59 | 14.5
9 | Cc1ccc(Oc2cc(C#Cc3ccc(C(=O)O)c(F)c3)ccc2C(C)(C)C)cc1 [Compound 26, 4-[[4′-tert-Butyl-3′-(4″-methyl)phenoxy]phenylethynyl]-2-fluoro-benzoic Acid] | 11 | 17 | 10
